In publication PMC10135964, “One Scaffold, Two Conformations: The Ring-Flip of the Messenger InsP8 Occurs under Cytosolic Conditions” (Biomolecules, 2023):
Entries after “also recorded” stand apart in the source; their conditions may differ.

Assays:
[1] = 1H,13C BIRD-HMQC NMR quantification of axial vs. equatorial conformer; format: physicochemical; conditions: 50 µM, 130 mM KCl, 10 mM NaCl, 4 °C
Method: Samples for HMQC-NMR studies contained 50 µM ^13C6-labeled InsPs (InsP6/5PP-InsP5/InsP8), 2 mM bis-tris-propane, 130 mM KCl, 10 mM NaCl and 0/50/250 µM MgCl2 in D2O.
BIRD-HMQC NMR spectra were recorded at 277 K and 600 MHz (^1H frequency) on a Bruker AV-III NMR spectrometer (Bruker Biospin, Rheinstetten, Germany) using cryogenically cooled 5 mm QCI-triple resonance probe equipped with one-axis self-shielded gradients. The spectrometer was operated using topspin 3.5 pl6 software. Instrument temperature was calibrated against […] according to Findeisen et al.. Acquisition parameters were SW(^13C): 60–90 ppm, NS: 128, TD(^13C): 64.
BIRD-HMQC spectra were recorded at 277 K as described above, with samples containing 200 µM InsPs, 130 mM KCl, 10 mM NaCl, 2mM BTP in D2O. pH was set to pH* 9.5 for InsP6, pH* 8.8 for 5PP-InsP5 and pH* 8.5 for InsP8 (pH = 0.929 × pH* + 0.42 [35]). NOESY-HMQC spectra of the same samples were subsequently recorded using mixing times of 80 ms for InsP6 and 5PP-InsP5 and 200 ms for InsP8. Conformational exchange on the time-scale of the experiment created cross-peaks between corresponding peaks in different conformations, which allowed us to assign each peak of the equatorial conformer to its axial counterpart.

[2] = Van't Hoff thermodynamic analysis of InsP8 conformational equilibrium; format: physicochemical; conditions: 10 mM NaCl; for ΔH^0 of eq. to ax. conformational transition / ΔS^0 of eq. to ax. conformational transition: 50 µM InsP8, pH* 7.5, 130 mM KCl
Method: BIRD-HMQC NMR spectra were recorded as described above, at 274–283 K in 1 K steps, two replicate samples per condition. Instrument temperature was calibrated against d4-methanol according to Findeisen et al..
Samples contained 50 µM InsP8, 5 mM HEPES pH* 7.5 (pH set on ice), 130 mM KCl, 10 mM NaCl, and either 100 µM or 250 µM MgCl2. Acquisition parameters were SW(^13C): 62–82 ppm, NS: 2048, TD(^13C): 16.
The best-isolated peaks (the 2-peak of ax. and 1-peak of eq. conformer) were integrated, subtracting 1PP-InsP5 impurities. The ax./eq. ratio (i.e., equilibrium constant K for the eq. to ax. transition) was plotted against 1/T, where T is temperature in Kelvin.
ΔH^0 and ΔS^0 were calculated from the regression line. Two replicates were combined for the linear regression.

[3] = 31P-NMR titrations of InsP8 (protonation, K+ and Mg2+ complex formation constants, HypNMR); format: physicochemical; conditions: for pH of the conformational change: 1 mM InsP8, 22 °C
Method: In order to create a system free of coordinating counterions, a batch of InsP8 was synthesized as described above, by enzymatic phosphorylation of 5PP-InsP5 and precipitation with Mg^2+, followed by Mg^2+ chelation on Amberlite® cation exchange resin. Unlike in the standard procedure, the resin was loaded with NMe4Cl instead of NH4CO3, resulting in a batch of InsP8 with non-coordinating NMe4^+ counterions. 1 mM EDTA was added to all ^31P-NMR titrations to chelate remaining traces of Mg^2+.
NMR-samples contained 1 mM InsP8, 1 mM EDTA, pH 3.0–12.5 (in H2O, steps of 0.5 pH units) and a) for the non-coordinating condition: 150 mM NMe4Cl or b) 150 mM KCl or c) 150 mM KCl and 1 mM MgCl2. Sealed glass capillaries containing 50 mM phosphonoacetic acid in D2O were added into the sample tubes for locking and chemical shift calibration.
^31P-NMR spectra were recorded at 295 K on a Bruker spectrometer (see above) operating at 600 MHz for protons and 244 MHz for phosphorous nuclei. SW: −40 ppm to −20 ppm, NS: 1024. Spectra at pH 3.0 were assigned by various 2D-NMR methods (Figure S5) and chemical shift changes were tracked across the pH range.
The data were analyzed using the HypNMR 2006 software (Hyperquad Limited, Lincoln, UK). Different possible stoichiometries were tested, and the final chemical models were selected on the basis of the σ parameter (scaled sum of square differences between predicted and experimental chemical shift values), the model confidence level estimator (chi square), and the internal consistency of data reflected in standard deviations of the formation constants. Species distribution diagrams were produced using the HySS program (Hyperquad Limited, Lincoln, UK).

VTC complex = tested on: VTC complex; set-up: method as in PMID 28186404; conditions: in vitro, VTC complex from budding yeast S. cerevisiae; cited from earlier work

Question: With O=P(O)(O)O[C@@H]1[C@@H](OP(=O)(O)O)[C@H](OP(=O)(O)OP(=O)(O)O)[C@@H](OP(=O)(O)O)[C@H](OP(=O)(O)OP(=O)(O)O)[C@@H]1OP(=O)(O)O [InsP8, 1,5(PP)2-InsP4] as the compound, how does the “proportion in axial conformation” value ([1]; pH* 7.5 (=pH 7.4), 1 equiv. Mg2+) read?
Answer: about 10%

Question: What about the “proportion in axial conformation” value ([1]; pH* 7.5, 5 equiv. Mg2+) of the same compound?
Answer: about half; also recorded: almost equally distributed between its axial and equatorial forms

Question: And the “proportion in axial conformation” value ([1]; pH* 8.5, without divalent cations)?
Answer: about half

Question: What about the “ΔH^0 of eq. to ax. conformational transition” value ([2]; 2 equiv. MgCl2, 274–283 K) of the same compound?
Answer: -17.1 ± 2.1 kcal/mol

Question: And the “ΔS^0 of eq. to ax. conformational transition” value ([2]; 2 equiv. MgCl2, 274–283 K)?
Answer: −0.063 ± 0.008 kcal/(mol·K)

Question: What about the “ΔH^0 of eq. to ax. conformational transition” value ([2]; 5 equiv. MgCl2, 274–283 K) of the same compound?
Answer: -7.2 ± 1.9 kcal/mol

Question: What about the “ΔS^0 of eq. to ax. conformational transition” value ([2]; 5 equiv. MgCl2, 274–283 K) of the same compound?
Answer: −0.025 ± 0.007 kcal/(mol·K)

Question: And the “axial conformer estimated at 37 °C (Gibbs-Helmholtz equation)” value ([2]; 2 equiv. Mg2+, pH* 7.5, 130 mM KCl)?
Answer: about 2%

Question: And the “axial conformer predicted at 37 °C (310 K)” value ([2]; 5 equiv. Mg2+, pH* 7.5, 130 mM KCl)?
Answer: 29%

Question: What about the “pH of the conformational change” value ([3]; 150 mM K+) of the same compound?
Answer: 8.5–9.0

Question: And the “pH of the transition to the equatorial conformation” value ([3]; 150 mM KCl and 1 mM MgCl2, 1 mM InsP8, 22 °C)?
Answer: ~8.5

Question: What about the “log K, 2 K^+ + H5L^9− ↔ [K2(H5L)]^7−” value ([3]; 31P NMR, 22 °C, I = 0.15 M) of the same compound?
Answer: 3.820(7)

Question: And the “log K, 3 K^+ + H4L^10− ↔ [K3(H4L)]^7−” value ([3]; 31P NMR, 22 °C, I = 0.15 M)?
Answer: 5.446(5)

Question: And the “log K, 4 K^+ + H2L^12− ↔ [K4(H2L)]^8−” value ([3]; 31P NMR, 22 °C, I = 0.15 M)?
Answer: 9.76(3)

Question: And the “log K, 5 K^+ + HL^13− ↔ [K5(HL)]^8−” value ([3]; 31P NMR, 22 °C, I = 0.15 M)?
Answer: 12.47(3)

Question: And the “log K, K^+ + H6L^8− ↔ [K(H6L)]^7−” value ([3]; 31P NMR, 22 °C, I = 0.15 M)?
Answer: 2.58(5)

Question: What about the “log K, K^+ + H7L^7− ↔ [K(H7L)]^6−” value ([3]; 31P NMR, 22 °C, I = 0.15 M) of the same compound?
Answer: 2.08(3)

Question: And the “log K, L^14− + 2 H^+ ↔ H2L^12−” value ([3]; 31P NMR, 22 °C, I = 0.15 M)?
Answer: 22.78(2)

Question: And the “log K, L^14− + 3 H^+ ↔ H3L^11−” value ([3]; 31P NMR, 22 °C, I = 0.15 M)?
Answer: 34.22(2)

Question: What about the “log K, L^14− + 4 H^+ ↔ H4L^10−” value ([3]; 31P NMR, 22 °C, I = 0.15 M) of the same compound?
Answer: 43.96(2)

Question: And the “log K, L^14− + 5 H^+ ↔ H5L^9−” value ([3]; 31P NMR, 22 °C, I = 0.15 M)?
Answer: 52.58(3)

Question: What about the “log K, L^14− + 6 H^+ ↔ H6L^8−” value ([3]; 31P NMR, 22 °C, I = 0.15 M) of the same compound?
Answer: 59.41(8)

Question: And the “log K, L^14− + 7 H^+ ↔ H7L^7−” value ([3]; 31P NMR, 22 °C, I = 0.15 M)?
Answer: 64.91(6)

Question: What about the “log K, L^14− + 8 H^+ ↔ H8L^6−” value ([3]; 31P NMR, 22 °C, I = 0.15 M) of the same compound?
Answer: 68.79(7)

Question: What about the “log K, L^14− + H^+ ↔ HL^13−” value ([3]; 31P NMR, 22 °C, I = 0.15 M) of the same compound?
Answer: 11.21(1)

Question: And the “log K, Mg^2+ + H2L^12− + 3 K^+ ↔ [MgK3(H2L)]^7−” value ([3]; 31P NMR, 22 °C, I = 0.15 M)?
Answer: 18.1(1)

Question: And the “log K, Mg^2+ + H4L^10− + 2 K^+ ↔ [MgK2(H4L)]^6−” value ([3]; 31P NMR, 22 °C, I = 0.15 M)?
Answer: 11.6(1)

Question: What about the “log K, Mg^2+ + H5L^9− + K^+ ↔ [MgK(H5L)]^6−” value ([3]; 31P NMR, 22 °C, I = 0.15 M) of the same compound?
Answer: 9.1(1)

Question: And the “log K, Mg^2+ + H6L^8− + K^+ ↔ [MgK(H6L)]^5−” value ([3]; 31P NMR, 22 °C, I = 0.15 M)?
Answer: 7.3(1)

Question: What about the “log K, Mg^2+ + HL^13− + 4 K^+ ↔ [MgK4(HL)]^7−” value ([3]; 31P NMR, 22 °C, I = 0.15 M) of the same compound?
Answer: 21.6(1)

Question: What about the “log K, Mg^2+ + L^14− + 4 K^+ ↔ [MgK4L]^8−” value ([3]; 31P NMR, 22 °C, I = 0.15 M) of the same compound?
Answer: 22.4(1)

Question: What about the negative charges carried ([3]; pH 7.4) of the same compound?
Answer: 10–11

Question: And the most abundant species ([3]; physiological pH range, 150 mM KCl and 1 mM MgCl2, 22 °C)?
Answer: [MgK3(H3L)]^6−

Question: And the “pH of the conformational change” value ([3]; without coordinating cations (150 mM NMe4Cl))?
Answer: ~11

Question: And the “effectiveness at activating polyphosphate synthesis by the VTC complex” value (VTC complex)?
Answer: twenty-times more effective than 5PP-InsP5
